# Laboratory results published in ChEMBL document CHEMBL1141700, “Discovery of the catechol structural moiety as a Stat3 SH2 domain inhibitor by virtual screening” (Bioorg Med Chem Lett, 2008).
# pIC50: −log10 of the molar value. Activity calls are given as the source filed them. The calls are words filed in the database; no cut-off is given here.
# Columns and labels:
# [1] = molecular target: T1, Signal transducer and activator of transcription 3 (Homo sapiens, UniProt P40763); experiment: Inhibition of Stat3 binding to DNA in human U266 whole cell lysate at 100 ug/ml by ELISA; format: cell-free; conditions: U-266
# T1 sequence (P40763 whole entry): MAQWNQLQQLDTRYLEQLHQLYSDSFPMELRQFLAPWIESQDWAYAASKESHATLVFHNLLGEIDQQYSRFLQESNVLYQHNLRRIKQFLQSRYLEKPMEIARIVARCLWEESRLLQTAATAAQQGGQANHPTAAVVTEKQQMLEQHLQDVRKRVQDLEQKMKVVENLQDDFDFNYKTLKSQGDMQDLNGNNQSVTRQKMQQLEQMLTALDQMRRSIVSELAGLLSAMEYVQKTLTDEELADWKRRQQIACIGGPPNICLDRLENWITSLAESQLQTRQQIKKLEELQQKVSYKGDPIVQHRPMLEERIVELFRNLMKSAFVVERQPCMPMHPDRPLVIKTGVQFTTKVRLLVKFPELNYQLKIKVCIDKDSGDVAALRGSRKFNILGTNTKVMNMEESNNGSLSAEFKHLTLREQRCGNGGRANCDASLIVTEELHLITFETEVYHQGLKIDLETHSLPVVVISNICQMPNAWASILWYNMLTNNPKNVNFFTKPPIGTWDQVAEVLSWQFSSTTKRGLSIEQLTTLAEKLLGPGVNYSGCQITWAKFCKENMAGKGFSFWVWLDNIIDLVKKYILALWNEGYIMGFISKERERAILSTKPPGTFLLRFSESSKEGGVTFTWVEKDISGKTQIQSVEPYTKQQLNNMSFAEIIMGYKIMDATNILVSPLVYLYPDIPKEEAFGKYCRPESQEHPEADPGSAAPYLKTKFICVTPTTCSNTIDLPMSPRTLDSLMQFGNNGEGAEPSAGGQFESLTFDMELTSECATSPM
# [2] = molecular target: T1, Signal transducer and activator of transcription 3; experiment: Inhibition of Stat3 binding to DNA in human U266 whole cell lysate by ELISA; format: cell-free, U-266
# [3] = molecular target: T1, Signal transducer and activator of transcription 3; experiment: Inhibition of Stat3 phosphorylation in human U266 whole cell lysate by Western blotting; format: cell-based; conditions: U-266
# [4] = molecular target: Signal transducer and activator of transcription 3 (Mus musculus) (UniProt P42227); experiment: Displacement of pTyr705 from flag-tagged mouse Stat3 SH2 domain expressed in HEK293 cells up to 200 uM by fluorescence polarization
# Signal transducer and activator of transcription 3 (Mus musculus), sequence (P42227 whole entry, the tested form may be a part): as the sequence (P40763 whole entry) above, with E760D counted along it
Compound,inhibition [1],pIC50 [2],Activity [3],Activity [4]
Oc1ccc(CC/N=C/c2c(O)ccc3ccccc23)cc1O,50%,,,
O=C(O)c1ccccc1/N=C\c1ccc(O)c(O)c1,8%,,,
Oc1ccc(CC/N=C/c2cccc(O)c2O)cc1O,51%,,,
Oc1cccc(-c2nc3ccccc3s2)c1O,56%,,,
O=C(c1ccc(O)c(O)c1)c1cnc(NCc2ccc(F)cc2)s1,57%,,,
O=C(Cc1ccc2c(c1)OCO2)NCCc1ccc(O)c(O)c1,40%,3.45,Active,inactive
Cc1oc(C)c2c(=O)cc(-c3ccc(O)c(O)c3)cc(O)c12,,3.97,,
